Test results taken from patent publication US9469615B2, “Quinoxalines and AZA-quinoxalines as CRTH2 receptor modulators” (Merck Sharp & Dohme Corp., priority 2010, dated 2016).

Target: T1, hCRTH2 (Homo sapiens, UniProt Q9Y5Y4)
T1 construct: expressed in transfected cells; host or cells: HEK (human embryonic kidney) cells expressing hCRTH2; membrane preparation
T1 sequence (Q9Y5Y4 1-395): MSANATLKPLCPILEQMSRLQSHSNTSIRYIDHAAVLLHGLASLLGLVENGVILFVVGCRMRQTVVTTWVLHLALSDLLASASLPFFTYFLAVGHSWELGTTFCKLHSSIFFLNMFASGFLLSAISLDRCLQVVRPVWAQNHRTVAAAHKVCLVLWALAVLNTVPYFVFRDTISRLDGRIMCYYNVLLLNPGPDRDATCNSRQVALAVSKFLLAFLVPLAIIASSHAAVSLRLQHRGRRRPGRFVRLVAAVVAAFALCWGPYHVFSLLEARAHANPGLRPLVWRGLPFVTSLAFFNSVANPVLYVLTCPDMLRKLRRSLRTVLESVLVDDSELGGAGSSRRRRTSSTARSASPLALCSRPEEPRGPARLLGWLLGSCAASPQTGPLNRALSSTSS
Assay: Radioligand binding assay ([3H]PGD2 competition, HEK-hCRTH2 membranes)
Details: [3H]PGD2 binding
How it was run: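 Membranes (8-20 μg protein) from HEK-hCRTH2 cells were incubated 60 min at room temperature with 3.0 nM [3H]PGD2 in 50 mM Tris-HCl pH 7.4, 1 mM EDTA, 2 mM MnCl2, 1% DMSO. Non-specific binding defined with 10 μM PGD2. Bound radioactivity counted after filtration.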

Ki (rated A-E (Table A)) | Ki (values in text) | SMILES
20.1 to 200 nM | 132 nM | C[C@H](NC(=O)c1ccc2nc(-c3ccc(C(F)(F)F)cc3)c(CCCCC(=O)O)nc2c1)c1ccccn1 [compound 146, 7-[[[1(S)-(2-pyridinyl)ethyl]amino]carbonyl]-3-[4-(trifluoromethyl)phenyl]-2-quinoxalinepentanoic acid]
2.1 to 20 nM | – | C[C@@H](NC(=O)c1ccc2nc(-c3ccc(C(F)(F)F)cc3)c(CCCCC(=O)O)nc2c1)c1ccccn1 [compound 147, 7-[[[1(R)-(2-pyridinyl)ethyl]amino]carbonyl]-3-[4-(trifluoromethyl)phenyl]-2-quinoxalinepentanoic acid]
0.1 to 2 nM | – | O=C(O)CCCCc1nc2cc(C(=O)NCc3cccc(Cl)c3)ccc2nc1-c1ccc(C(F)(F)F)cc1 [compound 151, 7-[[[(3-chlorophenyl)methyl]amino]carbonly]-3-[4-(trifluoromethyl)phenyl]-2-quinoxalinepentanoic acid]
2.1 to 20 nM | – | O=C(O)CCCCc1nc2cc(C(=O)NCc3ccc(Cl)cc3)ccc2nc1-c1ccc(C(F)(F)F)cc1 [compound 155, 7-[[[(4-chlorophenyl)methyl]amino]carbonyl]-3-[4-(trifluoromethyl)phenyl]-2-quinoxalinepentanoic acid]
2.1 to 20 nM | – | CC(CCCc1nc2cc(C(=O)NCc3cccc(F)c3)ccc2nc1-c1ccc(Cl)cc1)C(=O)O (stereo not drawn) [compound 160, 3-(4-chlorophenyl)-7-[[[(3-fluorophenyl)methyl]amino]carbonyl]-alpha-methyl-2-quinoxalinepentanoic acid]
2.1 to 20 nM | – | CC(CCCc1nc2cc(C(=O)NCc3ccc(F)cc3)ccc2nc1-c1ccc(Cl)cc1)C(=O)O (stereo not drawn) [compound 161, 3-(4-chlorophenyl)-7-[[[(4-fluorophenyl)methyl]amino]carbonyl]-alpha-methyl-2-quinoxalinepentanoic acid]
0.1 to 2 nM | – | CC(CCCc1nc2cc(C(=O)N3CCC(c4ccccc4)CC3)ccc2nc1-c1ccc(Cl)cc1)C(=O)O (stereo not drawn) [compound 162, 3-(4-chlorophenyl)-alpha-methyl-7-[(4-phenyl-1-piperidinyl)carbonyl]-2-quinoxalinepentanoic acid]
2.1 to 20 nM | – | CC(CCCc1nc2cc(C(=O)N[C@@H](c3ccccc3)C(F)(F)F)ccc2nc1-c1ccc(Cl)cc1)C(=O)O (stereo partly drawn) [compound 163, 3-(4-chlorophenyl)-alpha-methyl-7-[[(2,2,2-trifluoro-1(S)-phenylethyl)amino]carbonyl]-2-2-quinoxalinepentanoic acid]
2.1 to 20 nM | – | CC(CCCc1nc2cc(C(=O)NCc3ccc(C#N)cc3)ccc2nc1-c1ccc(Cl)cc1)C(=O)O (stereo not drawn) [compound 164, 3-(4-chlorophenyl)-7-[[[(4-cyanophenyl)methyl]amino]carbonyl]-alpha-methyl-2-quinoxalinepentanoic acid]
2.1 to 20 nM | – | CC(CCCc1nc2cc(C(=O)N3CC(c4ccccc4)C3)ccc2nc1-c1ccc(Cl)cc1)C(=O)O (stereo not drawn) [compound 165, 3-(4-chlorophenyl)-alpha-methyl-7-[(3-phenyl-1-azetidinyl)carbonyl]-2-quinoxalinepentanoic acid]
2.1 to 20 nM | – | CC(CCCc1nc2cc(C(=O)N[C@H](C)c3ccc(F)cc3)ccc2nc1-c1ccc(Cl)cc1)C(=O)O (stereo partly drawn) [compound 166, 3(4-chlorophenyl)-7-[[[1(R)-(4-fluorophenyl)ethyl]amino]carbonyl]-alpha-methyl-2-quinoxalinepentanoic acid]
2.1 to 20 nM | – | CC(CCCc1nc2cc(C(=O)N[C@@H](C)c3ccc(F)cc3)ccc2nc1-c1ccc(Cl)cc1)C(=O)O (stereo partly drawn) [compound 167, 3-(4-chlorophenyl)-7-[[[1(S)-(4-fluorophenyl)ethyl]amino]carbonyl]-alpha-methyl-2-quinoxalinepentanoic acid]
2.1 to 20 nM | – | CC(CCCc1nc2cc(C(=O)NC3Cc4ccccc4C3)ccc2nc1-c1ccc(Cl)cc1)C(=O)O (stereo not drawn) [compound 168, 3-(4-chlorophenyl)-7-[[(2,3-dihydro-1H-inden-2-yl)amino]carbonyl]-alpha-methyl-2-quinoxalinepentanoic acid]
2.1 to 20 nM | – | CC(CCCc1nc2cc(C(=O)N3CCN(c4ccccc4)CC3)ccc2nc1-c1ccc(Cl)cc1)C(=O)O (stereo not drawn) [compound 169, 3-(4-chlorophenyl)-alpha-methyl-7-[(4-phenyl-1-piperazinyl)carbonyl]-2-quinoxalinepentanoic acid]
0.1 to 2 nM | 1.6 nM | O=C(O)CCCCc1nc2cc(C(=O)N3CC(c4ccccc4)C3)ccc2nc1-c1ccc(F)cc1 [compound 173, 3-(4-fluorophenyl)--7-[(3-phenyl-1-azetidinyl)carbonyl]-2-quinoxalinepentanoic acid]

Further lines, the compound ahead of its results:

SMILES | Ki (rated A-E (Table A)) | Ki (values in text)
O=C(O)CCCCc1nc2cc(C(=O)N3CCC[C@H](c4ccccc4)C3)ccc2nc1-c1ccccc1 [compound 143, 3-phenyl-7-[(3(R)-phenyl-1-piperidinyl)carbonyl]-2-quinooxalinepentanoic acid] | 2.1 to 20 nM | –
NC(=O)c1ccc2nc(-c3ccccc3)c(CCCCC(=O)O)nc2c1 [compound 144, 5-(7-carbamoyl-3-phenylquinoxalin-2-yl)pentanoic acid] | 20.1 to 200 nM | 118 nM
O=C(O)CCCCc1nc2cc(C(=O)N3CCC(n4ccnc4)CC3)ccc2nc1-c1ccccc1 [compound 145, 5-(7-(4-(1H-imidazol-1-yl)piperidine-l-carbonyl)-3-phenylquinoxalin-2-yl)pentanoic acid] | 2.1 to 20 nM | –
O=C(O)CCCCc1nc2cc(C(=O)N3CCC(c4ccccc4)CC3)ccc2nc1-c1ccc(C(F)(F)F)cc1 [compound 148, 7-[(4-phenyl-1-piperidinyl)carbonyl]-3-[4-(trifluoromethyl)phenyl]-2-quinoxalinepentanoic acid] | 0.1 to 2 nM | –
O=C(O)CCCCc1nc2cc(C(=O)N[C@@H](c3ccccc3)C(F)(F)F)ccc2nc1-c1ccc(C(F)(F)F)cc1 [compound 149, 3-[4-(trifluoromethyl)phenyl]-7-[[(2,2,2-trifluoro-1(S)-phenylethyl)amino]carbonyl]-2-quinoxalinepentanoic acid] | 2.1 to 20 nM | –
O=C(O)CCCCc1nc2cc(C(=O)NC3Cc4ccccc4C3)ccc2nc1-c1ccc(C(F)(F)F)cc1 [compound 150, 7-[[(2,3-dihydro-1H-inden-2-yl)amino]carbonyl]-3-[4-(trifluoromethyl)phenyl]-2-quinoxalinepentanoic acid] | 0.1 to 2 nM | –
O=C(O)CCCCc1nc2cc(C(=O)N3CC(c4ccccc4)C3)ccc2nc1-c1ccc(C(F)(F)F)cc1 [compound 154, 7-[(3-phenyl-1-azetidinyl)carbonyl]-3-[4-(trifluoromethyl)phenyl]-2-quinoxalinepentanoic acid] | 0.1 to 2 nM | –
O=C(O)CCCCc1nc2cc(C(=O)NCc3ccc(OC(F)(F)F)cc3)ccc2nc1-c1ccc(C(F)(F)F)cc1 [compound 156, 7-[[[[4-(trifluoromethoxy)phenyl]methyl]amino]carbonyl]-3-[4-(trifluoromethyl)phenyl]-2-quinoxalinepentanoic acid] | 2.1 to 20 nM | –
N#Cc1ccc(CNC(=O)c2ccc3nc(-c4ccc(C(F)(F)F)cc4)c(CCCCC(=O)O)nc3c2)cc1 [compound 157, 7-[[[(4-cyanophenyl)methyl]amino]carbonyl]-3-[4-(trifluoromethyl)phenyl]-2-quinoxalinepentanoic acid] | 2.1 to 20 nM | –
O=C(O)Cc1ccc(CCc2nc3cc(C(=O)N4CCC(c5ccccc5)CC4)ccc3nc2-c2ccc(Cl)cc2)cc1 [compound 158, 4-[2-[3-(4-chlorophenyl)-7-[(4-phenyl-1-piperidinyl)carbonyl]-2-quinoxalinyl]ethyl] benzeneacetic acid] | 201 to 700 nM | –
O=C(O)Cc1ccc(CCc2nc3cc(C(=O)NCc4cccc(Cl)c4)ccc3nc2-c2ccc(Cl)cc2)cc1 [compound 159, 4-[2-[3-(4-chlorophenyl)-7-[[[(3-chlorophenyl)methyl]amino]carbonyl]-2-quinoxalinyl]ethyl] benzeneacetic acid] | 201 to 700 nM | 564 nM
C[C@]1(c2ccccc2)CCCN(C(=O)c2ccc3nc(-c4ccccc4)c(CCCCC(=O)O)nc3c2)C1 [compound 170, 7-[(3(R)-methyl-3-phenyl-1-piperidinyl)carbonyl]-3-phenyl-2-quinoxalinepentanoic acid] | 2.1 to 20 nM | –
C[C@@]1(c2ccccc2)CCCN(C(=O)c2ccc3nc(-c4ccccc4)c(CCCCC(=O)O)nc3c2)C1 [compound 171, 7-[(3(S)-methyl-3-phenyl-1-piperidinyl)carbonyl]-3-phenyl-2-quinoxalinepentanoic acid] | 2.1 to 20 nM | –
O=C(O)CCCCc1nc2cc(C(=O)N3CC(c4ccccc4)C3)ccc2nc1-c1ccccc1 [compound 172, 3-phenyl-7-[(3-phenyl-1-azetidinyl)carbonyl]-2-quinoxalinepentanoic acid] | 0.1 to 2 nM | –
N#Cc1ccc(C2CN(C(=O)c3ccc4nc(-c5ccccc5)c(CCCCC(=O)O)nc4c3)C2)cc1 [compound 174, 7-[[3-(4-cyanophenyl)-1-azetidinyl]carbonyl]-3-phenyl-2-quinoxalinepentanoic acid] | 0.1 to 2 nM | –
N#Cc1cccc(C2CN(C(=O)c3ccc4nc(-c5ccccc5)c(CCCCC(=O)O)nc4c3)C2)c1 [compound 175, 7-[[3-(3-cyanophenyl)-1-azetidinyl]carbonyl]-3-phenyl-2-quinoxalinepentanoic acid] | 2.1 to 20 nM | –
O=C(O)CCCCc1nc2cc(C(=O)N3CCCC(c4ccccc4)C3)ccc2nc1-c1ccc(Cl)cc1 (stereo not drawn) [compound 176, 3-(4-chlorophenyl)-7-[(3-phenyl-1-piperidinyl)carbonyl]-2-quinoxalinepentanoic acid] | 2.1 to 20 nM | –
